Holding throughout (format): biochemical
In one assay the test system is O-glycosylated tau. The assay can be described thus: Nanogap biosensor impedance of microbeads bound to tau protein, reacted with O-GlcNAc (CTD110.6) antibody. The protocol:
(§1) A tosylate-treated magnetic bead (Thermo Fisher, Dynabead M-280, diameter 2.8 μm, 14203) and a tau protein binding antibody (abcam, Anti-Tau (Phosphor S262) antibody, ab64193, 50 μl/250 μl) are inserted in a 0.1 M PBS buffer and placed in a 37° C. incubator, and incubated on a roll mixer for 24 hours.
(§2) Next, the magnetic bead bound to the tau protein binding antibody are washed with 0.4% Block ACE (AbD serotec, USA) and blocked with 0.2 M tris buffer. 30 mg/mL of the microbead solution was stored in PBST (Phosphate Buffered Saline with Tween-20, 0.01% Tween-20) containing 0.4% Block Ace.
(§3) The tau protein at a concentration of 5250 ng/mL was diluted 1/10 in various concentrations (0.5 fg/mL to 50 pg/mL) using 0.1% PBST. Tau protein was treated with Thiamet G, an O-glycosylation drug, if necessary.
(§4) The microbead bound to the tau protein binding antibody were diluted to 300 μl/ml using 0.1% PBST, and the tau protein (diluent) and the microbead (diluent) were mixed at a concentration of 1:2 and reacted in a refrigerator for 22 hours.
(§5) Next, the microbead bound to the tau protein is washed twice with 0.1% PBST and washed twice with PBS (Phosphate Buffered Saline). Thereafter, it is diluted to a bead concentration of 60 μl/ml using PBS.
(§6) A microbead (300 μl/ml) bound to tau protein were prepared in the same manner as in Synthesis Example 1.
The microbead is mixed with 10.4 ng of an antibody capable of binding O-glycosylated proteins (Cell signaling, O-GlcNAc (CTD110.6) Mouse mAB, #9875) and reacted in a refrigerator for 22 hours.
The microbead bound to the O-glycosylated tau-binding antibody is washed twice with 0.1% PBST, washed twice with PBS, and diluted to a bead concentration of 60 μl/ml using PBS.
(§7) The samples thus obtained were measured for impedance using a biosensor array (10×10 or 20×20) with an electrode interval of 0.7 μm. […] In addition, impedance change rate is a value (%) obtained by dividing a difference between the impedance Zneg of Neg and the impedance BAT or BAT2 of divided by the impedance Zneg of Neg and multiplied by 100. Impedance change rate difference is defined as a value obtained by subtracting the impedance change rate of BAT from the impedance change rate of BAT2.

For another assay, the system named is phosphorylated tau. The assay can be described thus: Nanogap biosensor impedance of microbeads bound to tau protein, reacted with AT8 antibody. Conditions: 100 uM Thiamet G, tau protein 0.5 pg/ml. The protocol: as §1, §2, §3, §4, §5, §6
The microbead is mixed with 10 ng of an antibody capable of binding to phosphorylated tau protein (Thermo Fisher, Phospho-Tau (Ser202, Thr205) Antibody (AT8), MN1020) and reacted in a refrigerator for 22 hours.
The microbead bound to the phosphorylated tau-binding antibody is washed twice with 0.1% PBST, washed twice with PBS, and diluted to a bead concentration of 60 μl/ml using PBS.
The samples thus obtained were measured for impedance using a biosensor array (10×10 or 20×20) with an electrode interval of 0.7 μm. […] In addition, impedance change rate is a value (%) obtained by dividing a difference between the impedance Zneg of Neg and the impedance BAT or BAT2 of divided by the impedance Zneg of Neg and multiplied by 100. […]

In a further assay the test system is tau protein. The assay can be described thus: Ratio of impedance change due to phosphorylated tau (P) and O-glycosylated tau (O). The conditions noted are these: 100 uM Thiamet G; tau protein 0.5 pg/ml. The method, then: as §7
Where [1] appears, read: 10 uM Thiamet G, tau protein 0.5 pg/ml, O-GlcNAc.
Where [2] appears, read: 30 uM Thiamet G, tau protein 0.5 pg/ml, O-GlcNAc.
The mark [3] stands for this setting: 100 uM Thiamet G, tau protein 0.5 pg/ml, O-GlcNAc.

For the compound `CCN=C1N[C@@H]2[C@@H](O)[C@H](O)[C@@H](CO)O[C@@H]2S1` [Thiamet G], the BAT-BAT2 came out at 4.3 MΩ in the assay with O-glycosylated tau (setting [1]), 11.6 MΩ with O-glycosylated tau (setting [2]), 30.5 MΩ with O-glycosylated tau (setting [3]) and 0.59 MΩ in the assay on phosphorylated tau. Also, the “Impedance change rate difference” value in the assay on O-glycosylated tau (setting [1]) is 1.62%; with O-glycosylated tau (setting [2]), 4.39%; in the assay with O-glycosylated tau (setting [3]) it was 11.54%; in the assay with O-glycosylated tau (100 uM Thiamet G, tau protein 0.5 fg/ml) it was 7.5%; in the assay with O-glycosylated tau (100 uM Thiamet G, tau protein 5.2 fg/ml), 20.4%; in the assay on O-glycosylated tau (100 uM Thiamet G, tau protein 52.4 fg/ml) it was 28.9%. Besides, the “Impedance change rate difference” value was determined as 32.8% with O-glycosylated tau (100 uM Thiamet G, tau protein 524 fg/ml) and 1.28% in the assay with phosphorylated tau. Further, the “O ((BAT-BAT2)/Neg)” value with O-glycosylated tau (setting [3]) was 0.1154. Further, the “Impedance change rate difference for the microbead combined with O-glycosylated antibody” value in the assay on O-glycosylated tau (when the concentration of Thiamet G was increased (Tables 1-1 and 1-2)) is recorded as “greatly increased”. The “P ((BAT2-BAT)/Neg)” value with phosphorylated tau is 0.0128. The P/O with tau protein came out at 0.111.

The values above are taken from US10520514B2, “Method for monitoring post-translational modification of protein” (KOREA INSTITUTE OF SCIENCE AND TECHNOLOGY, priority 2017, dated 2019).
